Test results taken from PMC12563821 (International Journal of Molecular Sciences, 2025).
Read-outs that look alike come from different tables or passages of the source.

What was measured:
Sirt1 = system: T1, Sirt1; assay: Fluorescence-based Sirt1 subtype selectivity assay (Reaction Biology); assay type: biochemical; conditions: 50 µM inhibitor, duplicate, relative to no-inhibitor control
T1 construct: includes amino acids 1–747 (C-terminal); His-tag (N); purchased Reaction Biology Corporation (Malvern, PA, USA), in-house enzyme of the contract laboratory; host or cells: E. coli
Experimental: (§1) The determination of the inhibitory potency and corresponding subtype selectivity of the synthesized hybrid candidates was performed by Reaction Biology Cooperation (Malvern, PA, USA) using a fluorescence-based assay (Table 1).
(§2) Sirtuin assays. The biological activity of the test substances against the respective sirtuin enzymes was evaluated by means of a fluorescence-based assay performed by Reaction Biology Corporation (Malvern, PA, USA). The sirtuin enzymes used in the assays were all obtained from in-house sources at Reaction Biology Corporation (Malvern, PA, USA). Sirt1, with accession number NM_012238, includes amino acids 1–747 (C-terminal) and is tagged with an N-terminal His-tag. Sirt1 was expressed in E. coli and purified to greater than 85% as confirmed by SDS-PAGE and is supplied as a solution in 50 mM Tris/HCl (pH 7.5), 100 mM NaCl, and 10% glycerol (v/v). Sirt2 (accession number NM_012237), comprising amino acids 50–389 (C-terminal), features an N-terminal His-tag and was expressed in E. coli and finally purified to over 90% by SDS-PAGE. Sirt2 is provided in a buffer containing 50 mM Tris/HCl (pH 7.5), 500 mM NaCl, 1 mM TCEP, and 10% glycerol (v/v). Sirt3, with accession number NM_012239.3, spans amino acids 101–399 and is tagged with an N-terminal GST and expressed in E. coli and purified to greater than 85% purity by SDS-PAGE. Sirt3 is supplied in 50 mM Tris/HCl (pH 7.5), 500 mM NaCl, and 10% glycerol (v/v). Sirt5 (accession number NM_012241), consisting of amino acids 37–310 (C-terminal) and tagged with an N-terminal His-tag, was expressed in E. coli, purified to greater than 95% purity by SDS-PAGE and delivered as a solution in 50 mM Tris/HCl (pH 7.5), 500 mM NaCl, 1 mM TCEP, and 10% glycerol (v/v). All proteins were provided in purified forms for use in the assays. The respective internal assay protocol is outlined in the following: After the test substances (dissolved in DMSO) were incubated with the desired sirtuin enzyme in assay buffer (Tris-HCl, pH = 8) for 10 min at 30 °C, a substrate mixture consisting of a 7-amino-4-methylcoumarin-linked fluorogenic peptide substrate (p53 residues 379–382) and the cofactor NAD^+ was added. After 2 h of incubation at 30 °C, the universal inhibitor nicotinamide was added in excess to completely stop the deacetylation reaction, followed by the addition of a protease-based developer to release 7-amino-4-methylcoumarin, resulting in characteristic fluorescence, which was measured after 1 h at 30 °C (excitation/emission = 360/460). A no-inhibitor control was implemented, serving as a reference for 100% enzyme activity. […] Three individual IC50 values per test compound were calculated from the corresponding three dilution series fluorescence data using sigmoidal curve fitting in Prism 8.0.2 (GraphPad Software, Boston, MA, USA), and these were averaged to determine the mean IC50 value along with the standard deviation. To assess the selectivity against Sirt1, Sirt3, and Sirt5, a 50 µM concentration of the test compound was tested in duplicate, and the inhibitory activity was expressed as the mean of the duplicates in percentage of enzyme activity, including standard deviation, relative to the no-inhibitor control (representative 100% enzyme activity).

[1] = MTT-based cell viability assay; design: species or system human; conditions: human; HL-60 cells, 24 h incubation, MTT; read-out: IC50 acute cytotoxicity
Experimental: (§3) The SirReal-based Sirt2 inhibitors (FM345, FM352, FM358, FM368, RW-93, RW-95 and RW-99) were tested for potential acute cytotoxicity to human cells in an MTT-based cell viability assay. […] HL-60 cells were treated with the corresponding Sirt2 inhibitors at various concentrations and then incubated for 24 h. […] Representative cell viability results following treatment with RW-93 are shown in Figure S1 of the Supplementary Materials.
(§4) Cell viability assay. The cytotoxicity of the Sirt2 inhibitors was determined using a colorimetric MTT assay following Mosmann’s protocol. HL-60 cells (purchased from DSMZ (German Collection of Microorganisms and Cell Cultures, Deutsche Sammlung von Mikroorganismen und Zellkulturen GmbH, Braunschweig, Germany) were cultivated in RPMI medium with 10% fetal bovine serum at 37 °C with 5% CO2 atmosphere. The cells were then seeded in a 96-well plate with a concentration of 9 x 10^4 cells/well and a well volume of 99 µL. The cells were further incubated at 37 °C with 5% CO2 atmosphere for 24 h. The cells were then treated with 1 µL solution of Sirt2 inhibitors in various concentrations, which were prepared from 10 mM or 20 mM DMSO stock solutions. Negative controls were treated with 1 µL DMSO and positive controls with 1 µL of 1% Triton-X solution. Three technical replicates were performed. After incubation for 24 h, 10 µL MTT (5.0 mg/mL in PBS) were added to each well and the cells were incubated at 37 °C with 5% CO2 atmosphere for 2 h. Then 190 µL DMSO were added to each well and the plate shaken at room temperature at 600 rpm for 1 h with light exclusion. The absorbance of the MTT metabolite formazan was measured at 570 nm using the MRX Microplate Reader (Dynex Technologies, Chantilly, VA, USA). The means of the corresponding triplicates were calculated and set in relation to the 1% DMSO negative controls. The data was processed using Prism 8.0.2 (GraphPad Software, Boston, MA, USA) software and a logarithmic sigmoidal curve fitting for the calculation of the respective IC50 values was performed.

Sirt2 = molecular target: T2, Sirt2 (Homo sapiens, UniProt Q8IXJ6); assay: Fluorescence-based Sirt2 deacetylase inhibition assay (Reaction Biology); assay type: biochemical; conditions: for IC50: fluorescence-based assay
T2 construct: comprising amino acids 50–389 (C-terminal); His-tag (N); purchased Reaction Biology Corporation (Malvern, PA, USA), in-house enzyme of the contract laboratory; host or cells: E. coli
T2 sequence (Q8IXJ6 50-389): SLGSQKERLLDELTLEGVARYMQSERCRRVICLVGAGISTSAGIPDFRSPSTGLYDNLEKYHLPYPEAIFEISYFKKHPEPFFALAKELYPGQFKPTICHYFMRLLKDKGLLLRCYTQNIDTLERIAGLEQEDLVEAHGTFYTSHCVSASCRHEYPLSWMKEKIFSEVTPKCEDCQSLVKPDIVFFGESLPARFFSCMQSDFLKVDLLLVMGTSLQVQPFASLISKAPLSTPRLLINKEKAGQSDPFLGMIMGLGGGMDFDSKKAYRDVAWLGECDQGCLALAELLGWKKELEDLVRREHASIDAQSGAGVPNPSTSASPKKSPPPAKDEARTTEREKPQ
Experimental: as §1
Sirtuin assays. The biological activity of the test substances against the respective sirtuin enzymes was evaluated by means of a fluorescence-based assay performed by Reaction Biology Corporation (Malvern, PA, USA). The sirtuin enzymes used in the assays were all obtained from in-house sources at Reaction Biology Corporation (Malvern, PA, USA). […] Sirt2 is provided in a buffer containing 50 mM Tris/HCl (pH 7.5), 500 mM NaCl, 1 mM TCEP, and 10% glycerol (v/v). […] Sirt3 is supplied in 50 mM Tris/HCl (pH 7.5), 500 mM NaCl, and 10% glycerol (v/v). […] All proteins were provided in purified forms for use in the assays. […] After 2 h of incubation at 30 °C, the universal inhibitor nicotinamide was added in excess to completely stop the deacetylation reaction, followed by the addition of a protease-based developer to release 7-amino-4-methylcoumarin, resulting in characteristic fluorescence, which was measured after 1 h at 30 °C (excitation/emission = 360/460). A no-inhibitor control was implemented, serving as a reference for 100% enzyme activity. […] Three individual IC50 values per test compound were calculated from the corresponding three dilution series fluorescence data using sigmoidal curve fitting in Prism 8.0.2 (GraphPad Software, Boston, MA, USA), and these were averaged to determine the mean IC50 value along with the standard deviation. To assess the selectivity against Sirt1, Sirt3, and Sirt5, a 50 µM concentration of the test compound was tested in duplicate, and the inhibitory activity was expressed as the mean of the duplicates in percentage of enzyme activity, including standard deviation, relative to the no-inhibitor control (representative 100% enzyme activity).

Sirt3 = system: T3, Sirt3; assay: Fluorescence-based Sirt3 subtype selectivity assay (Reaction Biology); assay type: biochemical; conditions: 50 µM inhibitor, duplicate, relative to no-inhibitor control
T3 construct: spans amino acids 101–399; GST (N); purchased Reaction Biology Corporation (Malvern, PA, USA), in-house enzyme of the contract laboratory; host or cells: E. coli
Experimental: as §1, §2

Sirt5 = system: T4, Sirt5; assay: Fluorescence-based Sirt5 subtype selectivity assay (Reaction Biology); assay type: biochemical; conditions: 50 µM inhibitor, duplicate, relative to no-inhibitor control
T4 construct: consisting of amino acids 37–310 (C-terminal); His-tag (N); purchased Reaction Biology Corporation (Malvern, PA, USA), in-house enzyme of the contract laboratory; host or cells: E. coli
Experimental: as §1, §2

HL-60 cells = assay: MTT-based cell viability assay; design: species or system human
Experimental: as §3, §4

HL-60 cell line = system: HL-60 cell line; design: method as in PMID 35441145; conditions: cited from earlier work
[2] = rounded values, read-out: IC50 Sirt2
[3] = mean ± SD of three dilution series, read-out: IC50 [µM] ± SD Sirt2

Row | SMILES | Residual Enzyme Activity [%] ± SD Sirt1 (Sirt1) [%] | IC50 (Sirt2; [2]) [µM] | IC50 (Sirt2; [3]) [µM] | Residual Enzyme Activity [%] ± SD Sirt3 (Sirt3) [%] | Residual Enzyme Activity [%] ± SD Sirt5 (Sirt5) [%] | stronger Sirt2 inhibition compared to lead compound Yang_24a (fold) (Sirt2; ratio of Sirt2 IC50 values) | selectivity towards related subtypes Sirt1, Sirt3 and Sirt5 (Sirt2; Sirt2 versus Sirt1, Sirt3, Sirt5) | outperforms lead compound SirReal2 by a factor (Sirt2; ratio of Sirt2 IC50 values) | times more potent than hybrid precursor FM358 (Sirt2; ratio of Sirt2 IC50 values) | IC50 at 24 h [1] [µM] | changes in cell viability relative to DMSO control (HL-60 cells; HL-60 cells, MTT, up to 200 µM, three technical replicates) | acute toxicity to human cells (HL-60 cells; MTT assay) | toxicity in HL-60 cell line (HL-60 cell line)
1 | Cc1cc(C)nc(SCC(=O)Nc2ncc(COc3ccc(NC(=O)c4cccs4)cc3)s2)n1 [FM352, N-(4-((2-(2-((4,6-Dimethylpyrimidin-2-yl)thio)acetamido)thiazol-5-yl)methoxy)phenyl)thiophene-2-carboxamide] | 101 ± 1 | 0.094 | 0.0935 ± 0.0064 | 75.8 ± 5.3 | 75.6 ± 1.1 |  |  |  |  | > 50 |  |  | 
2 | Cc1cc(C)nc(SCC(=O)Nc2ncc(COc3cccc4ccccc34)s2)n1 [FM368, 2-((4,6-Dimethylpyrimidin-2-yl)thio)-N-(5-((naphthalen-1-yloxy)methyl)thiazol-2-yl)acetamide] | 88.5 ± 2.7 | 6.5 | 6.51 ± 0.84 | 85.0 ± 0.5 | 89.1 ± 1.4 |  |  |  |  | > 50 |  |  | 
3 | Cc1cc(C)nc(SCC(=O)Nc2ncc(COc3ccc(NC(=O)c4cnn(C)c4)c(I)c3)s2)n1 [RW-95, N-(4-((2-(2-((4,6-Dimethylpyrimidin-2-yl)thio)acetamido)thiazol-5-yl)methoxy)-2-iodophenyl)-1-methyl-1H-pyrazole-4-carboxamide] | 60.9 ± 0.7 | 0.049 | 0.0485 ± 0.0056 | 64.2 ± 1.2 | 48.2 ± 1.8 |  |  |  |  | > 50 |  |  | 
4 | Cc1cc(C)nc(SCC(=O)Nc2ncc(Cc3cccc4ccccc34)s2)n1 [SirReal2] |  |  |  |  |  |  |  |  |  |  |  |  | not toxic

Further molecules by falling IC50 (Sirt2; [3]), results first:

Row | Residual Enzyme Activity [%] ± SD Sirt1 (Sirt1) [%] | IC50 (Sirt2; [2]) [µM] | IC50 (Sirt2; [3]) [µM] | Residual Enzyme Activity [%] ± SD Sirt3 (Sirt3) [%] | Residual Enzyme Activity [%] ± SD Sirt5 (Sirt5) [%] | stronger Sirt2 inhibition compared to lead compound Yang_24a (fold) (Sirt2; ratio of Sirt2 IC50 values) | selectivity towards related subtypes Sirt1, Sirt3 and Sirt5 (Sirt2; Sirt2 versus Sirt1, Sirt3, Sirt5) | outperforms lead compound SirReal2 by a factor (Sirt2; ratio of Sirt2 IC50 values) | times more potent than hybrid precursor FM358 (Sirt2; ratio of Sirt2 IC50 values) | SMILES | IC50 at 24 h [1] [µM] | changes in cell viability relative to DMSO control (HL-60 cells; HL-60 cells, MTT, up to 200 µM, three technical replicates) | acute toxicity to human cells (HL-60 cells; MTT assay) | toxicity in HL-60 cell line (HL-60 cell line)
5 | 95.6 ± 2.3 | 5.3 | 5.29 ± 0.73 | 78.8 ± 0.8 | 94.6 ± 2.3 |  |  |  |  | Cc1cc(C)nc(SCC(=O)Nc2ncc(COc3ccccc3)s2)n1 [FM345, 2-((4,6-Dimethylpyrimidin-2-yl)thio)-N-(5-(phenoxymethyl)thiazol-2-yl)acetamide] | > 50 |  |  | 
6 | 71.9 ± 0.6 | 0.066 | 0.0656 ± 0.0044 | 62.5 ± 0.1 | 79.8 ± 0.6 | 1.2 |  |  |  | Cc1cc(C)nc(SCC(=O)Nc2ncc(COc3ccc(NC(=O)c4cnn(C)c4)cc3)s2)n1 [FM358, N-(4-((2-(2-((4,6-Dimethylpyrimidin-2-yl)thio)acetamido)thiazol-5-yl)methoxy)-phenyl)-1-methyl-1H-pyrazole-4-carboxamide] | > 50 |  |  | 
7 | 53.9 ± 0.2 |  | 0.025 ± 0.0026 | 56.1 ± 0.1 | 55.1 ± 2.0 |  |  |  |  | Cc1cc(C)nc(SCC(=O)Nc2ncc(COc3ccc(NC(=O)c4cnn(C)c4)c(Cl)c3)s2)n1 [RW-99, N-(2-Chloro-4-((2-(2-((4,6-dimethylpyrimidin-2-yl)thio)acetamido)thiazol-5-yl)methoxy)phenyl)-1-methyl-1H-pyrazole-4-carboxamide] | > 50 |  |  | 
8 | 58.2 ± 0.2 | 0.016 | 0.0155 ± 0.0007 | 62.3 ± 1.2 | 53.0 ± 0.2 | 5 | more than 3000 fold | 15 | more than 4 | Cc1cc(C)nc(SCC(=O)Nc2ncc(COc3ccc(NC(=O)c4cnn(C)c4)c(Br)c3)s2)n1 [RW-93, N-(2-Bromo-4-((2-(2-((4,6-dimethylpyrimidin-2-yl)thio)acetamido)thiazol-5-yl)-methoxy)phenyl)-1-methyl-1H-pyrazole-4-carboxamide] | > 50 | No signiﬁcant changes | ruled out | 
